Source: patent US4132738A, “Preparation of 15-deoxy-16-hydroxyprostaglandins” (Miles Laboratories, Inc., priority 1978, dated 1979)

What was measured:
[1] = test system: femoral blood flow in the anesthetized dog; experiment: Effects on femoral blood flow in the anesthetized dog; format: in vivo; settings: comparison in words
Experimental: The peripheral vasodilator or constrictor effects of test compounds were determined in mongrel dogs of either sex, weighing between 10 and 20 kg, anesthetized intravenously with 35 mg/kg of pentobarbital sodium. An external iliac artery was dissected immediately above the femoral arch for a length of approximately 5 cm, and a previously calibarated, non-cannulating electromagnetic-flowmeter sensor with a lumen between 2.5 and 3.5 mm was placed snugly around the vessel. Cannulas were placed in a branch of the artery arising distally to the location of the flowmeter sensor for intraarterial drug administrations, in the contralateral femoral artery for systemic blood pressure recording, and in the trachea for artificial respiration with room air. Femoral blood flow and systemic blood pressure were continuously recorded with an electromagnetic flowmeter and pressure transducer, respectively.
After an adequate control period, test compounds were injected intraarterially at one log-spaced doses ranging from 0.001 to 10 mcg, in a volume of 0.5 ml and at 5 to 10 minute intervals. […] The dose changing blood flow by 100 ml/min (ED100 ml/min) was calculated graphically and was used for scoring activity as follows: […]

guinea pig trachea = experiment: Effects on the guinea pig trachea in vitro; format: cell-based; settings: comparison in words
Experimental: A male guinea pig weighing 200-500 g was killed by a blow on the head. A 20 mm length of the trachea was dissected from the animal, transferred to a petri dish containing Krebs' solution (aerated with 95% O2 and 5% CO2 at 37° C.), and cut longitudinally opposite the tracheal muscle. The tissue was then cut transversely three quarters of the distance across, a second cut in the opposite direction (again three quarters of the distance across the tissue) was made and the procedure was continued for the whole tissue. The ends of the trachea were pulled to form a zig-zig shaped strip. The tracheal strip used in the experiment was approximately 30 mm when extended under 0.25-0.5 g load in the tissue bath. Cotton thread was tied to one end of the tissue, and linen thread to the other. It was attached via the linen thread to a glass hook in a 5 ml isolated tissue bath containing Krebs' solution (37° C., aerated with a mixture of 95% O2 and 5% CO2). The opposite end was attached via cotton to an isotonic Harvard transducer (Model 386 Heart/Smooth Muscle Transducer, Harvard Apparatus). The load on the transducer lever was small, usually 0.3 g, with a range of 0.25-0.5 g, and the magnification high, 80 fold using an appropriate twin-channel pen recorder. A minimum of thirty minutes was allowed before applying a test compound to the tissue. Test compounds were then applied (in volumes of 0.5 ml) at thirty minute intervals, being in contact with the tissue for five minutes followed by an overflow washout time of twenty seconds.
Prostaglandin E1, at a bath concentration of 0.1 mcg/ml, was then tested repeatedly on two such strips, obtained from two different animals, until two responses (the values of which are recorded) differing by no more than 25% occur. A test compound was then added to the same two strips at bath concentrations of 0.01, 0.1, 1.0, and 10.0 mcg/ml and the effects of the compound were recorded. After the test compound had been evaluated at the highest concentration, PGE1 was retested at 0.1 mcg/ml (and the value of the response recorded) to insure that the viability of the strips was retained during the experiment. The mean of the effects of the test compound on the two strips was then calculated for each concentration, and, biased on the resulting values, an activity value was assigned as follows: […]

[2] = test system: gastric secretion in the rat; experiment: Effects on gastric secretion in the rat; format: in vivo; settings: comparison in words
Experimental: A procedure based on that described by Lipman, W. (J. Pharm. Pharmacol., 21: 335 [1968]) was used to assess the influence of test compounds on gastric secretion. Rats of one sex weighing 150 to 200 g were randomly divided into groups of six animals each and fasted for 48 hours previous to the experiments, water being available ad libitum. The animals were anesthetized with ether, the abdomen opened through a midline incision, and the pylorus ligated. Test compounds were diluted from stock solution so as to administer a dose of 1.5 mg/kg in a volume equivalent to 1 ml/kg. Subcutaneous injections were applied immediately after surgery and again 2 hours later, so that a total dose of 3.0 mg/kg was administered. Dilutions were made with phosphate buffer (pH 7.38) as recommended by Lee et al. (Prostaglandins, 3: 29 [1973]) in order to insure adequate stability of drugs at the subcutaneous depot. Each compound was tested in one group of rats; an additional control group received only the vehicle.
Four hours after pyllric ligation the animals were killed with ether, the cardias ligated, and the stomachs removed. The volume of gastric secretion was measured and the contents centrifuged at 5000 rpm for 10 minutes. Total acid in the supernatant was titrated against a 0.1 N sodium hydroxide solution and the amount expressed in mEq.
Volume and total acid values of the treated group were compared with those of the controls […]. Antisecretory activity was scored according to the following scale: […]

[3] = test system: blood pressure in the hypertensive rat; experiment: Effects on systolic blood pressure in the hypertensive rat; format: in vivo; parameters: key: 0: Not significant at any time interval; 1: Significant at one time interval; 2: Significant at two time intervals; settings: 1 mg/kg intraperitoneal; 2, 4, 6 and 9 hours
Experimental: The acute anithypertensive activity of test compounds was determined in rats made hypertensive by the procedure of Grollman (Proc. Soc. Exper Biol. Med., 57: 102 [1944]). Female rats weighing between 60 and 100 g were anesthetized with ether, the right kidney approached through a flank retroperitoneal incision, decapsulated and tied with a figure-of-eight-ligature. The animals were left to recover and two weeks later were again anesthetized and the contralateral kidney removed. Four weeks after the second operation the rats were subjected to indirect blood pressure measurements and those showing systolic pressure values greater than 160 mmHg were selected for drug testing.
Blood pressure was measured in the tail with an inflatable occluding cuff placed at the base of the extremity and a pulse detector located distally. The cuff was inflated to approximately 300 mmHg and was slowly deflated until pulsations appeared, indicating the level of systolic pressure; diastolic pressure was not recorded by this procedure. All measurements were carried out in unanesthetized, unsedated animals maintained in a warm environment during the recording procedure and for at least 6 hours before. In all cases, three pressure readings were obtained in succession and mean values were calculated thereof.
Experiments were carried out in groups of five hypertensive rats in which systolic pressure was determined immediately before and 2, 4, 6 and 9 hours after intraperiotoneal administration of the test compound at a dose of 1 mg/kg. Drugs were diluted from stock solutions with phosphate buffer (Lee et. al., Prostaglandins, 29 [1973]), so as to inject this quantity in a volume of 1 ml/kg. Changes from control blood pressure values were calculated for each interval both in mmHg and in percent, and evaluated for significance by means of Wilcoxon's signed rank test (Wilcoxon, R. and Wilcox, R. A., "Some Rapid Approximate Statistical Procedures," Lederle Laboratories, Pearl River [1964]).

Compound	Femoral blood flow value, methyl ester versus carbinol [1]	Guinea pig trachea value, carbinol versus methyl ester analogue (guinea pig trachea)	GAS value, carbinol versus methyl ester analogue [2]	Blood Pressure Hypertensive Rat: activity value [3]
CCCCC(C)(O)C/C=C/[C@H]1[C@H](O)CC(=O)[C@@H]1CCCCCCC(=O)OC (stereo partly drawn) [TR 4704, Methyl 11α, 16RS-dihydroxy-16-methyl-9-oxoprost-13E-oate, reference compound]	significantly and undesirably higher	the same	the same	0
CCCCC(O)C/C=C/[C@H]1[C@H](O)CC(=O)[C@@H]1CCCCCCC(=O)OC (stereo partly drawn) [TR 4705, Methyl 11α, 16RS-dihydroxy-9-oxoprost-13E-en-1-oate, reference compound]	slightly higher	the same	the same	0
